Source: the supplement of paper PMC10307832

Experiments:
Assay in all cases: relative viability (nuclei count vs DMSO), 5 days (fraction); higher = more cells survive
Shikonin + Luminespib = compound: CC(C)=CC[C@@H](O)C1=CC(=O)c2c(O)ccc(O)c2C1=O [Shikonin] + CCNC(=O)c1noc(-c2cc(C(C)C)c(O)cc2O)c1-c1ccc(CN2CCOCC2)cc1 [Luminespib] (partner 0.01 µM)
Summary of the method: (§1)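 One day after seeding in 1536-well plates, lung cancer cell lines were dosed by pin tool. Dosing was either single-drug or a fixed anchor-drug dose plus five library-drug doses (not always all listed) in √10 steps. After 5 days, nuclei were stained in one fix-and-stain step and counted on 4× images, and relative viability is the nuclei count of treated wells over that of vehicle wells, given as the median of duplicate plates.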

Shikonin + Pictilisib = compound: CC(C)=CC[C@@H](O)C1=CC(=O)c2c(O)ccc(O)c2C1=O [Shikonin] + CS(=O)(=O)N1CCN(Cc2cc3nc(-c4cccc5[nH]ncc45)nc(N4CCOCC4)c3s2)CC1 [Pictilisib] (partner 1 µM)
Summary of the method: as §1

[1] = compound: CC(C)N(CCCNC(=O)Nc1ccc(C(C)(C)C)cc1)C[C@H]1O[C@@H](n2ccc3c(N)ncnc32)[C@H](O)[C@@H]1O + COc1cccc2cc(-c3nc([C@H]4CC[C@H](C(=O)O)CC4)n4ncnc(N)c34)[nH]c12 [OSI-027] (partner 0.5 µM)
Summary of the method: as §1

[2] = compound: CC(C)N(CCCNC(=O)Nc1ccc(C(C)(C)C)cc1)C[C@H]1O[C@@H](n2ccc3c(N)ncnc32)[C@H](O)[C@@H]1O + NC(=O)Nc1cc(-c2cccc(F)c2)sc1C(=O)N[C@H]1CCCNC1 [AZD7762] (partner 0.2 µM)
Summary of the method: as §1

## NCI-H2405
Shikonin + Luminespib; first compound 0.01 µM
  relative viability: 0.698
Shikonin + Luminespib; first compound 0.1 µM
  relative viability: 0.745
Shikonin + Luminespib; first compound 0.3162 µM
  relative viability: 0.665
Shikonin + Luminespib; first compound 1 µM
  relative viability: 0.644
Shikonin + Pictilisib; first compound 0.01 µM
  relative viability: 0.442
Shikonin + Pictilisib; first compound 0.1 µM
  relative viability: 0.401
Shikonin + Pictilisib; first compound 0.3162 µM
  relative viability: 0.553
Shikonin + Pictilisib; first compound 1 µM
  relative viability: 0.474
[1]; first compound 0.08 µM
  relative viability: 0.626
[1]; first compound 0.253 µM
  relative viability: 0.678
[1]; first compound 0.8 µM
  relative viability: 0.684
[1]; first compound 2.53 µM
  relative viability: 0.668
[1]; first compound 8 µM
  relative viability: 0.592
[2]; first compound 0.08 µM
  relative viability: 0.742
[2]; first compound 0.253 µM
  relative viability: 0.817
[2]; first compound 0.8 µM
  relative viability: 0.689
[2]; first compound 2.53 µM
  relative viability: 0.844
[2]; first compound 8 µM
  relative viability: 0.699

## NCI-H3122
Shikonin + Luminespib; first compound 0.01 µM
  relative viability: 0.0973
Shikonin + Luminespib; first compound 0.1 µM
  relative viability: 0.0926
Shikonin + Luminespib; first compound 0.3162 µM
  relative viability: 0.0903
Shikonin + Luminespib; first compound 1 µM
  relative viability: 0.0968
Shikonin + Pictilisib; first compound 0.01 µM
  relative viability: 0.638
Shikonin + Pictilisib; first compound 0.1 µM
  relative viability: 0.643
Shikonin + Pictilisib; first compound 0.3162 µM
  relative viability: 0.607
Shikonin + Pictilisib; first compound 1 µM
  relative viability: 0.494
[1]; first compound 0.08 µM
  relative viability: 0.897
[1]; first compound 0.253 µM
  relative viability: 1.02
[1]; first compound 0.8 µM
  relative viability: 0.925
[1]; first compound 2.53 µM
  relative viability: 0.926
[1]; first compound 8 µM
  relative viability: 0.722
[2]; first compound 0.08 µM
  relative viability: 0.967
[2]; first compound 0.253 µM
  relative viability: 1.03
[2]; first compound 0.8 µM
  relative viability: 1.02
[2]; first compound 2.53 µM
  relative viability: 0.907
[2]; first compound 8 µM
  relative viability: 0.959

## PC-3 [JPC-3]
Shikonin + Luminespib; first compound 0.01 µM
  relative viability: 0.727
Shikonin + Luminespib; first compound 0.1 µM
  relative viability: 0.677
Shikonin + Luminespib; first compound 0.3162 µM
  relative viability: 0.665
Shikonin + Luminespib; first compound 1 µM
  relative viability: 0.622
Shikonin + Pictilisib; first compound 0.01 µM
  relative viability: 0.69
Shikonin + Pictilisib; first compound 0.1 µM
  relative viability: 0.84
Shikonin + Pictilisib; first compound 0.3162 µM
  relative viability: 0.759
Shikonin + Pictilisib; first compound 1 µM
  relative viability: 0.788
[1]; first compound 0.08 µM
  relative viability: 0.801
[1]; first compound 0.253 µM
  relative viability: 0.867
[1]; first compound 0.8 µM
  relative viability: 0.718
[1]; first compound 2.53 µM
  relative viability: 0.779
[1]; first compound 8 µM
  relative viability: 0.721
[2]; first compound 0.08 µM
  relative viability: 0.759
[2]; first compound 0.253 µM
  relative viability: 0.81
[2]; first compound 2.53 µM
  relative viability: 0.794
[2]; first compound 8 µM
  relative viability: 0.872

## PC-14
Shikonin + Luminespib; first compound 0.01 µM
  relative viability: 0.115
Shikonin + Luminespib; first compound 0.1 µM
  relative viability: 0.12
Shikonin + Luminespib; first compound 0.3162 µM
  relative viability: 0.135
Shikonin + Luminespib; first compound 1 µM
  relative viability: 0.151
Shikonin + Pictilisib; first compound 0.01 µM
  relative viability: 0.817
Shikonin + Pictilisib; first compound 0.3162 µM
  relative viability: 0.641
Shikonin + Pictilisib; first compound 1 µM
  relative viability: 0.68
[1]; first compound 0.08 µM
  relative viability: 0.826
[1]; first compound 0.253 µM
  relative viability: 0.802
[1]; first compound 0.8 µM
  relative viability: 0.786
[1]; first compound 2.53 µM
  relative viability: 0.872
[1]; first compound 8 µM
  relative viability: 0.745
[2]; first compound 0.08 µM
  relative viability: 0.321
[2]; first compound 0.253 µM
  relative viability: 0.364
[2]; first compound 0.8 µM
  relative viability: 0.401
[2]; first compound 2.53 µM
  relative viability: 0.274
[2]; first compound 8 µM
  relative viability: 0.287

## RERF-LC-KJ
Shikonin + Luminespib; first compound 0.01 µM
  relative viability: 1.2
Shikonin + Luminespib; first compound 0.1 µM
  relative viability: 1.29
Shikonin + Luminespib; first compound 0.3162 µM
  relative viability: 1.2
Shikonin + Luminespib; first compound 1 µM
  relative viability: 1.11
Shikonin + Pictilisib; first compound 0.01 µM
  relative viability: 0.549
Shikonin + Pictilisib; first compound 0.1 µM
  relative viability: 0.512
Shikonin + Pictilisib; first compound 0.3162 µM
  relative viability: 0.557
Shikonin + Pictilisib; first compound 1 µM
  relative viability: 0.248
[1]; first compound 0.08 µM
  relative viability: 0.551
[1]; first compound 0.253 µM
  relative viability: 0.624
[1]; first compound 0.8 µM
  relative viability: 0.679
[1]; first compound 2.53 µM
  relative viability: 0.529
[1]; first compound 8 µM
  relative viability: 0.453
[2]; first compound 0.08 µM
  relative viability: 1.09
[2]; first compound 0.253 µM
  relative viability: 0.954
[2]; first compound 0.8 µM
  relative viability: 0.867
[2]; first compound 2.53 µM
  relative viability: 0.981
[2]; first compound 8 µM
  relative viability: 0.84
